Measurements reported in US20240368135A1 (VERTEX PHARMACEUTICALS INCORPORATED, priority 2021, published 2024).

Molecular target: human NaV 1.8 (Homo sapiens, UniProt Q9Y5Y9)
Assay: E-VIPR assay detecting and measuring NaV inhibition properties
Type: cell-based
Details: HEK cells expressing truncated human NaV 1.8; no human serum; read-out: IC50 in the E-VIPR Assay
In short: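 Membrane potential was followed by coumarin/oxonol FRET during electrical field stimulation of matrigel-seeded HEK cells carrying truncated human NaV1.8 plus KIR2.1. Dosing used 11 points, 3-fold steps, top 300 nM final, 0.625% DMSO, with or without 25% human serum.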

Chain of human NaV 1.8 (Q9Y5Y9 126-399 limits assumed): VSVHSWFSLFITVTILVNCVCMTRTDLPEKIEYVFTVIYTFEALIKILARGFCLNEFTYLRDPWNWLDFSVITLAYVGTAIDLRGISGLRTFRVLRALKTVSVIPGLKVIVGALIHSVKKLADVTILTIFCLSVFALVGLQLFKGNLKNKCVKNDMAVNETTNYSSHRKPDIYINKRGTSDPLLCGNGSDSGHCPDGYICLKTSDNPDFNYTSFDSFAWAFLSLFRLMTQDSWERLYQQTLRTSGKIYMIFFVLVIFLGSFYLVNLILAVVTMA
Chain of human NaV 1.8 (Q9Y5Y9 660-890 limits assumed): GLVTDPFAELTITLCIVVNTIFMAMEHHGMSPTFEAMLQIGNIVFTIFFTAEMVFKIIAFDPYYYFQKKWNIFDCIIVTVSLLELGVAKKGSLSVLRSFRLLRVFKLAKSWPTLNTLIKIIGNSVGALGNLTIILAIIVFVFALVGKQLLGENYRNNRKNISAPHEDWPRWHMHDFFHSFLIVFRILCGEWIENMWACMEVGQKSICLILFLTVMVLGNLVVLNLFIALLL
Chain of human NaV 1.8 (Q9Y5Y9 1148-1722 limits assumed): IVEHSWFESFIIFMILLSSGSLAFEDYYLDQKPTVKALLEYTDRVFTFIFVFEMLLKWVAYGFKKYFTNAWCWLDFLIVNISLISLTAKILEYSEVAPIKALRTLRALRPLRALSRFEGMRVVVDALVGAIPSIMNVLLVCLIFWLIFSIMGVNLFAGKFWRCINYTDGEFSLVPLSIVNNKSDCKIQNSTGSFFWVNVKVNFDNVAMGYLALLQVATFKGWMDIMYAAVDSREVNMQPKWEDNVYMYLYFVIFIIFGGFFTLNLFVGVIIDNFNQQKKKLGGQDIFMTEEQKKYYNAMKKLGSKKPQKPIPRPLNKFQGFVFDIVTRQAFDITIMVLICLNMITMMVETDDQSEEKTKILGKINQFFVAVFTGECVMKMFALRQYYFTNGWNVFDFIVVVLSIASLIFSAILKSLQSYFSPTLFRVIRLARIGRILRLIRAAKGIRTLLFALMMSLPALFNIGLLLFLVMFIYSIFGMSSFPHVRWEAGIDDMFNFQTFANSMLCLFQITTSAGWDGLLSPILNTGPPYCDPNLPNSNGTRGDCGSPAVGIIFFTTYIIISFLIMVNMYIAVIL

| Structure (SMILES) | IC50 |
| --- | --- |
| Cc1ncc(NC(=O)[C@@H]2O[C@@](C)(C(F)(F)F)[C@@H](C)[C@H]2c2ccc(F)c(F)c2OCCO)c(C)n1 [Compound 543, (2R,3S,4S,5R)-3-(3,4-difluoro-2-(2-hydroxyethoxy)phenyl)-N-(2,4-dimethylpyrimidin-5-yl)-4,5-dimethyl-5-(trifluoromethyl)tetrahydrofuran-2-carboxamide] | ≥ 1000 nM |
| C[C@H]1[C@@H](c2ccc(F)c(F)c2OCCO)[C@H](C(=O)Nc2cc(C3CC3)n(C)n2)O[C@@]1(C)C(F)(F)F [Compound 546, (2R,3S,4S,5R)-N-(5-cyclopropyl-1-methyl-1H-pyrazol-3-yl)-3-(3,4-difluoro-2-(2-hydroxyethoxy)phenyl)-4,5-dimethyl-5-(trifluoromethyl)tetrahydrofuran-2-carboxamide] | ≥ 1000 nM |
| C[C@H]1[C@@H](c2ccc(F)c(F)c2OCCO)[C@H](C(=O)Nc2ccnn2C)O[C@@]1(C)C(F)(F)F [Compound 547, (2R,3S,4S,5R)-3-(3,4-difluoro-2-(2-hydroxyethoxy)phenyl)-4,5-dimethyl-N-(1-methyl-1H-pyrazol-5-yl)-5-(trifluoromethyl)tetrahydrofuran-2-carboxamide] | 100 to 1000 nM |
| C[C@H]1[C@@H](c2ccc(F)c(F)c2OCCO)[C@H](C(=O)Nc2cnn(CC#N)c2)O[C@@]1(C)C(F)(F)F [Compound 549, (2R,3S,4S,5R)-N-(1-(cyanomethyl)-1H-pyrazol-4-yl)-3-(3,4-difluoro-2-(2-hydroxyethoxy)phenyl)-4,5-dimethyl-5-(trifluoromethyl)tetrahydrofuran-2-carboxamide] | 100 to 1000 nM |
| COc1ncc(NC(=O)[C@@H]2O[C@@](C)(C(F)(F)F)[C@@H](C)[C@H]2c2ccc(F)c(F)c2OCCO)cn1 [Compound 550, (2R,3S,4S,5R)-3-(3,4-difluoro-2-(2-hydroxyethoxy)phenyl)-N-(2-methoxypyrimidin-5-yl)-4,5-dimethyl-5-(trifluoromethyl)tetrahydrofuran-2-carboxamide] | 100 to 1000 nM |
| Cc1ncc(C2CCOC2)cc1NC(=O)[C@@H]1O[C@@](C)(C(F)(F)F)[C@@H](C)[C@H]1c1ccc(F)c(F)c1OCCO (stereo partly drawn) [Compound 551, (2R,3S,4S,5R)-3-(3,4-difluoro-2-(2-hydroxyethoxy)phenyl)-4,5-dimethyl-N-(2-methyl-5-(tetrahydrofuran-3-yl)pyridin-3-yl)-5-(trifluoromethyl)tetrahydrofuran-2-carboxamide] | ≥ 1000 nM |
| COCCn1ccc(NC(=O)[C@@H]2O[C@@](C)(C(F)(F)F)[C@@H](C)[C@H]2c2ccc(F)c(F)c2OCCO)n1 [Compound 552, (2R,3S,4S,5R)-3-(3,4-difluoro-2-(2-hydroxyethoxy)phenyl)-N-(1-(2-methoxyethyl)-1H-pyrazol-3-yl)-4,5-dimethyl-5-(trifluoromethyl)tetrahydrofuran-2-carboxamide] | ≥ 1000 nM |
| COCn1cnc(NC(=O)[C@@H]2O[C@@](C)(C(F)(F)F)[C@@H](C)[C@H]2c2ccc(F)c(F)c2OCCO)n1 [Compound 553, (2R,3S,4S,5R)-3-(3,4-difluoro-2-(2-hydroxyethoxy)phenyl)-N-(1-(methoxymethyl)-1H-1,2,4-triazol-3-yl)-4,5-dimethyl-5-(trifluoromethyl)tetrahydrofuran-2-carboxamide] | ≥ 1000 nM |
| CC1C(c2ccc(F)c(F)c2OCCO)C(C(=O)Nc2ncn(C3CC(F)C3)n2)OC1(C)C(F)(F)F [Compound 554, (2R,3S,4S,5R)-3-(3,4-difluoro-2-(2-hydroxyethoxy)phenyl)-N-(1-((15,3S)-3-fluorocyclobutyl)-1H-1,2,4-triazol-3-yl)-4,5-dimethyl-5-(trifluoromethyl)tetrahydrofuran-2-carboxamide] | ≥ 1000 nM |
| C[C@H]1[C@@H](c2ccc(F)c(F)c2OCCO)[C@H](C(=O)Nc2ccon2)O[C@@]1(C)C(F)(F)F [Compound 556, (2R,3S,4S,5R)-3-(3,4-difluoro-2-(2-hydroxyethoxy)phenyl)-N-(isoxazol-3-yl)-4,5-dimethyl-5-(trifluoromethyl)tetrahydrofuran-2-carboxamide] | 100 to 1000 nM |
| C[C@H]1[C@@H](c2ccc(F)c(F)c2OCCO)[C@H](C(=O)Nc2ncn(C3CCOC3)n2)O[C@@]1(C)C(F)(F)F (stereo partly drawn) [Compound 561, (2R,3S,4S,5R)-3-(3,4-difluoro-2-(2-hydroxyethoxy)phenyl)-4,5-dimethyl-N-(1-(tetrahydrofuran-3-yl)-1H-1,2,4-triazol-3-yl)-5-(trifluoromethyl)tetrahydrofuran-2-carboxamide] | ≥ 1000 nM |
| COCc1cc(C)nc(NC(=O)[C@@H]2O[C@@](C)(C(F)(F)F)[C@@H](C)[C@H]2c2ccc(F)c(F)c2OCCO)n1 [Compound 562, (2R,3S,4S,5R)-3-(3,4-difluoro-2-(2-hydroxyethoxy)phenyl)-N-(4-(methoxymethyl)-6-methylpyrimidin-2-yl)-4,5-dimethyl-5-(trifluoromethyl)tetrahydrofuran-2-carboxamide] | ≥ 1000 nM |
| C[C@H]1[C@@H](c2ccc(F)c(F)c2OCCO)[C@H](C(=O)Nc2ncnc3c2cnn3C(C)(C)C)O[C@@]1(C)C(F)(F)F [Compound 563, (2R,3S,4S,5R)-N-(1-(tert-butyl)-1H-pyrazolo[3,4-d]pyrimidin-4-yl)-3-(3,4-difluoro-2-(2-hydroxyethoxy)phenyl)-4,5-dimethyl-5-(trifluoromethyl)tetrahydrofuran-2-carboxamide] | ≥ 1000 nM |
| C[C@H]1[C@@H](c2ccc(F)c(F)c2OCCO)[C@H](C(=O)Nc2cnc3nnn(C)c3c2)O[C@@]1(C)C(F)(F)F [Compound 565, (2R,3S,4S,5R)-3-(3,4-difluoro-2-(2-hydroxyethoxy)phenyl)-4,5-dimethyl-N-(1-methyl-1H-[1,2,3]triazolo[4,5-b]pyridin-6-yl)-5-(trifluoromethyl)tetrahydrofuran-2-carboxamide] | 10 to 100 nM |

Now from value to compound:

| IC50 | Structure (SMILES) |
| --- | --- |
| 10 to 100 nM | COc1cc(NC(=O)[C@@H]2O[C@@](C)(C(F)(F)F)[C@@H](C)[C@H]2c2ccc(F)c(F)c2OCCO)ccn1 [Compound 544, (2R,3S,4S,5R)-3-(3,4-difluoro-2-(2-hydroxyethoxy)phenyl)-N-(2-methoxypyridin-4-yl)-4,5-dimethyl-5-(trifluoromethyl)tetrahydrofuran-2-carboxamide] |
| 10 to 100 nM | Cc1conc1NC(=O)[C@@H]1O[C@@](C)(C(F)(F)F)[C@@H](C)[C@H]1c1ccc(F)c(F)c1OCCO [Compound 545, (2R,3S,4S,5R)-3-(3,4-difluoro-2-(2-hydroxyethoxy)phenyl)-4,5-dimethyl-N-(4-methylisoxazol-3-yl)-5-(trifluoromethyl)tetrahydrofuran-2-carboxamide] |
| 10 to 100 nM | C[C@H]1[C@@H](c2ccc(F)c(F)c2OCCO)[C@H](C(=O)Nc2ccc3nncn3c2)O[C@@]1(C)C(F)(F)F [Compound 548] |
| 10 to 100 nM | C[C@H]1[C@@H](c2ccc(F)c(F)c2OCCO)[C@H](C(=O)Nc2cncs2)O[C@@]1(C)C(F)(F)F [Compound 555, (2R,3S,4S,5R)-3-(3,4-difluoro-2-(2-hydroxyethoxy)phenyl)-4,5-dimethyl-N-(thiazol-5-yl)-5-(trifluoromethyl)tetrahydrofuran-2-carboxamide] |
| 10 to 100 nM | Cc1nn(C)cc1NC(=O)[C@@H]1O[C@@](C)(C(F)(F)F)[C@@H](C)[C@H]1c1ccc(F)c(F)c1OCCO [Compound 557, (2R,3S,4S,5R)-3-(3,4-difluoro-2-(2-hydroxyethoxy)phenyl)-N-(1,3-dimethyl-1H-pyrazol-4-yl)-4,5-dimethyl-5-(trifluoromethyl)tetrahydrofuran-2-carboxamide] |
| < 10 nM | Cc1nocc1NC(=O)[C@@H]1O[C@@](C)(C(F)(F)F)[C@@H](C)[C@H]1c1ccc(F)c(F)c1OCCO [Compound 558, (2R,3S,4S,5R)-3-(3,4-difluoro-2-(2-hydroxyethoxy)phenyl)-4,5-dimethyl-N-(3-methylisoxazol-4-yl)-5-(trifluoromethyl)tetrahydrofuran-2-carboxamide] |
| 10 to 100 nM | Cc1oncc1NC(=O)[C@@H]1O[C@@](C)(C(F)(F)F)[C@@H](C)[C@H]1c1ccc(F)c(F)c1OCCO [Compound 559, (2R,3S,4S,5R)-3-(3,4-difluoro-2-(2-hydroxyethoxy)phenyl)-4,5-dimethyl-N-(5-methylisoxazol-4-yl)-5-(trifluoromethyl)tetrahydrofuran-2-carboxamide] |
| 10 to 100 nM | Cc1cc(NC(=O)[C@@H]2O[C@@](C)(C(F)(F)F)[C@@H](C)[C@H]2c2ccc(F)c(F)c2OCCO)ccn1 [Compound 560, (2R,3S,4S,5R)-3-(3,4-difluoro-2-(2-hydroxyethoxy)phenyl)-4,5-dimethyl-N-(2-methylpyridin-4-yl)-5-(trifluoromethyl)tetrahydrofuran-2-carboxamide] |
| < 10 nM | COCc1cc(NC(=O)[C@@H]2O[C@@](C)(C(F)(F)F)[C@@H](C)[C@H]2c2ccc(F)c(F)c2OCCO)ccn1 [Compound 564, (2R,3S,4S,5R)-3-(3,4-difluoro-2-(2-hydroxyethoxy)phenyl)-N-(2-(methoxymethyl)pyridin-4-yl)-4,5-dimethyl-5-(trifluoromethyl)tetrahydrofuran-2-carboxamide] |
| < 10 nM | C[C@H]1[C@@H](c2ccc(F)c(F)c2OCCO)[C@H](C(=O)Nc2ccnc(C(F)F)c2)O[C@@]1(C)C(F)(F)F [Compound 566, (2R,3S,4S,5R)-3-(3,4-difluoro-2-(2-hydroxyethoxy)phenyl)-N-(2-(difluoromethyl)pyridin-4-yl)-4,5-dimethyl-5-(trifluoromethyl)tetrahydrofuran-2-carboxamide] |
| < 10 nM | COCCOc1cc(NC(=O)[C@@H]2O[C@@](C)(C(F)(F)F)[C@@H](C)[C@H]2c2ccc(F)c(F)c2OCCO)ccn1 [Compound 567, (2R,3S,4S,5R)-3-(3,4-difluoro-2-(2-hydroxyethoxy)phenyl)-N-(2-(2-methoxyethoxy)pyridin-4-yl)-4,5-dimethyl-5-(trifluoromethyl)tetrahydrofuran-2-carboxamide] |
